Measured values published in patent publication US9687467B2, “Diagnosis and treatment of taxane-resistant cancers” (Children's Medical Center Corporation, priority 2011, dated 2017).

How the values were obtained:
[1] = system: A549 cells overexpressing miR-135a; assay: Xenograft of A549 cells stably overexpressing miR-135a, paclitaxel treatment; assay type: in vivo, nude mice; details: paclitaxel three times a week for 3 weeks
Protocol: A549 cells stably expressing either non-targeting premiR (A549-control) or premiR-135a (A549-miR-135a) were generated. (FIG. 8A) miR-135a expression level in A549-control and -miR-135a was determined and compared with A549 and A549TR cells using qRT-PCR analysis. *P<0.01. (FIG. 8B) Paclitaxel response of A549-control and A549-premiR-135a cells was determined using the MTT assay. (FIG. 8C) APC protein expression was examined using western blot analysis in A549-control and -premiR-135a cells. (FIG. 8D) A549-control and -premiR-135a cells were inoculated subcutaneously into the flanks of nude mice. Paclitaxel treatment was given three times a week for 3 weeks. The tumor size in each group was measured during the course of treatment and was calculated, relative to the size before treatment initiation. Each curve represents the average tumor growth±s.e.m. for 10 mice per group. **P<0.001 as determined by Wilcoxon's rank sum test.
The inventors subsequently investigated the role of miR-135a in paclitaxel sensitivity in vivo. […] As expected, miR-135a […] attenuated paclitaxel-induced cell death (FIG. 8B) and APC protein expression (FIG. 8C) relative to control transfected A549 cells in vitro. […] Paclitaxel treatment was given three times a week for 3 weeks, and tumor size in each group was monitored during the course of treatment. […]

T28.2 xenografts = assay: Retransplantation xenograft, paclitaxel-sensitive control clone; assay type: in vivo, nude mice
Protocol: FIGS. 6A-6C are a series of graphs showing data that validate the A549 in vivo paclitaxel resistance model. (FIG. 6A) Tumor cell lines established after an initial round of inoculation and treatment with either vehicle (T28.2) or 15 mg/kg paclitaxel (T20.2) were harvested during log-phase growth and reinjected subcutaneously into the flanks of nude mice. When the average tumor volume was ˜120 mm^3, vehicle (open circles or squares) or 15 mg/kg paclitaxel (closed circles or squares) was administered intraperitoneally every other day. Treatment was continued until tumors reached approximately four times their initial volume. Each curve represents the average tumor growth±s.e.m. for 10 mice per group. […] Each bar represents the average tumor growth±s.e.m. for 10 mice per group. NS: not significant, *P<0.05 as determined by Wilcoxon's rank sum test. (FIG. 6C) Tumors were harvested, cultured in vitro and cell viability was assessed using the MTT assay. Values are presented as percentage of cell survival in paclitaxel-treated cells relative to untreated cells. White bars represent LC50s from tumor cell lines established from T28.2 tumors treated with vehicle. Black bars represent LC50s from cell lines established from T20.2 tumors treated with paclitaxel. Shown are the mean±s.e.m. of two independent experiments, each performed in triplicate. *P<0.05 as determined by Wilcoxon's rank sum test. […]

## CC(=O)O[C@H]1C(=O)[C@@]2(C)[C@H]([C@H](OC(=O)c3ccccc3)[C@]3(O)C[C@H](OC(=O)[C@H](O)[C@@H](NC(=O)c4ccccc4)c4ccccc4)C(C)=C1C3(C)C)[C@]1(OC(C)=O)CO[C@@H]1C[C@@H]2O [paclitaxel]
[1]
  in vivo growth under paclitaxel exposure: not reduced
T28.2 xenografts; 15 mg/kg paclitaxel i.p.
  tumor growth after paclitaxel treatment: shrank substantially
T28.2 xenografts; 15 mg/kg paclitaxel i.p. vs vehicle, P=0.003
  reduction of relative tumor burden at the end of the experiment: 4.5 fold
